Consider one compound from publication PMC10279719 (Nature Communications, 2023).

For orientation: Kd means the concentration at which binding is half-saturated.

One test deals with T1, 14-3-3ε (Homo sapiens, UniProt P62258).
T1 construct: 14-3-3ε (UniProt P62258-1; residues 1–255); 8-His tag with TEV protease cleavage site (N); made in house; host or cells: E. coli C41 (DE3)
T1 sequence (P62258 1-255): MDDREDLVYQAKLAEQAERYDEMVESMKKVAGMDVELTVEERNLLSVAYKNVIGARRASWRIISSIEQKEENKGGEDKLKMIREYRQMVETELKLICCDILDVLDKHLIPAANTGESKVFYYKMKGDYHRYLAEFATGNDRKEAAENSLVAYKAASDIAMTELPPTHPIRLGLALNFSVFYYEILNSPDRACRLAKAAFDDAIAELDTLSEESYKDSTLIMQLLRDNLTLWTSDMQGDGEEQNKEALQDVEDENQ
In words: SPR, PEAK tandem peptides binding to immobilised 14-3-3ε. Particulars: peptide analyte over amine-coupled 14-3-3ε (CM5); Biacore S200, HBS-TP pH 7.4, 20 °C; steady-state 1:1 fit; mean ± S.E.M.; read-out: SPR KD, 14-3-3ε (epsilon). How it is done: Purified […]3 was diluted to 5 μg ml^-1 in 10 mM sodium acetate pH 4.0 and amine coupled at 25 °C to a Series S CM5 sensor chip, in HBS-N running buffer (20 mM HEPES pH 7.4, 150 mM NaCl) to a final immobilization level of 1100-1400 response units (RU), followed by surface deactivation using 1 M ethanolamine. A blank activation/deactivation was used for the reference surface. […] PEAK PRM peptides: […] Samples were injected in a multi-cycle run (flow rate 30 μl min^-1, contact time of 60 s, dissociation 120 s) without regeneration. Sensorgrams were double referenced, and steady-state binding data fitted using a 1:1 binding model using Biacore S200 Evaluation Software (Cytiva, v. 1.1). […] Representative sensorgrams and fitted dissociation constant (KD) values, depicted as mean ± S.E.M.

In test [1] the target is T2, 14-3-3γ (Homo sapiens, UniProt P61981).
T2 construct: 14-3-3γ (UniProt P61981-1; residues 1–247); 8-His tag with TEV protease cleavage site (N); made in house; host or cells: E. coli C41 (DE3)
T2 sequence (P61981 1-247): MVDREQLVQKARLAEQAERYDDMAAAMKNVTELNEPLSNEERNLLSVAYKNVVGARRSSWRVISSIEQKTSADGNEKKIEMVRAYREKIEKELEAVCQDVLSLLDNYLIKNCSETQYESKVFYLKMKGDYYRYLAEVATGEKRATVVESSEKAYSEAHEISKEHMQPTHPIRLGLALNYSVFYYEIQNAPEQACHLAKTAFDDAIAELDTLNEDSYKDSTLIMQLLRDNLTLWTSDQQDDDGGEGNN
Kind of test: SPR, PEAK peptides binding to immobilised 14-3-3γ. As to conditions: peptide analyte over amine-coupled 14-3-3γ (CM5), Biacore S200, HBS-TP pH 7.4, 20 °C, steady-state 1:1 fit, mean ± S.E.M. On the procedure: (§1) Purified […]3 was diluted to 5 μg ml^-1 in 10 mM sodium acetate pH 4.0 and amine coupled at 25 °C to a Series S CM5 sensor chip, in HBS-N running buffer (20 mM HEPES pH 7.4, 150 mM NaCl) to a final immobilization level of 1100-1400 response units (RU), followed by surface deactivation using 1 M ethanolamine. A blank activation/deactivation was used for the reference surface. […] Samples were injected in a multi-cycle run (flow rate 30 μl min^-1, contact time of 60 s, dissociation 120 s) without regeneration. Sensorgrams were double referenced, and steady-state binding data fitted using a 1:1 binding model using Biacore S200 Evaluation Software (Cytiva, v. 1.1). […] Representative sensorgrams and fitted dissociation constant (KD) values, depicted as mean ± S.E.M.

For the next test, the target named is T3, CrkII^NSH3 (Homo sapiens, UniProt P46108).
T3 construct: CrkII^NSH3; UniProt P46108-1, residues 134–191; 8-His tag with TEV protease cleavage site (N); made in house; host or cells: E. coli C41 (DE3)
Kind of test: ITC, CrkII NSH3 titrated into PEAK3 tandem peptides (binary) or peptide:14-3-3γ complexes (ternary). The format is binding. As to conditions: CrkII NSH3 (400 µM, syringe) into peptide pre-saturated with 14-3-3γ (16.8 µM, cell), 25 °C, HEPES pH 7.4, mean ± S.E.M. of N = 4 (pS69) or N = 1 (non-phosphorylated), read-out: ITC KD, CrkII N-SH3, ternary. On the procedure:
(§2) ITC binding experiments were conducted using a MicroCal iTC200 instrument (Malvern Instruments). Titrations were conducted at 25 °C in reverse mode (peptide in cell, protein in syringe) and consisted of 19 injections of 2 μl […] at a rate of 2 s μl^−1 at 90 s time intervals, whilst stirring at 1000 rpm. An initial injection of 0.4 μl protein was made and discarded during data analysis. Proteins (14-3-3ɣ or CrkII^NSH3) were first dialyzed overnight at 4 °C into ITC buffer (20 mM HEPES pH 7.4, 150 mM NaCl, 1 mM TCEP), filtered and degassed under vacuum. […] Following the first titration, excess solution was removed from the cell, and the syringe was washed and dried. […] All data were fitted to a single binding site model to obtain the stoichiometry (N), dissociation constant (KD) and the enthalpy of binding (ΔH), using MicroCal PEAQ-ITC Analysis software (v.1.41).

The target of test [2] is T2, 14-3-3γ. In words: ITC, 14-3-3γ titrated into PEAK3 tandem peptides. The format is binding. Particulars: binary, 14-3-3γ (syringe) into peptide (20 µM, cell), 25 °C, 20 mM HEPES pH 7.4, 150 mM NaCl, 1 mM TCEP, single-site fit, mean ± S.E.M. of N = 4 (N = 1 for non-phosphorylated peptide). How it is done:
as §2
A general note: ITC needs no label: the signal is the heat of the interaction.

The target of another test is T4, 14-3-3η (Homo sapiens, UniProt Q04917).
T4 construct: 14-3-3η (UniProt Q04917-1; residues 1–246); 8-His tag with TEV protease cleavage site (N); made in house; host or cells: E. coli C41 (DE3)
T4 sequence (Q04917 1-246): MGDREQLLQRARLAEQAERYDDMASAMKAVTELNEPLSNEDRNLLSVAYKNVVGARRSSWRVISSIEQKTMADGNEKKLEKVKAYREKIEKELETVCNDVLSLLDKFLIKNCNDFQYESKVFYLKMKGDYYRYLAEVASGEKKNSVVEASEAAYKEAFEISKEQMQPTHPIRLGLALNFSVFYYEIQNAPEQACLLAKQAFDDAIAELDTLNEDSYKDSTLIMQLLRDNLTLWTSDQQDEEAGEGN
In words: SPR, PEAK tandem peptides binding to immobilised 14-3-3η. Particulars: peptide analyte over amine-coupled 14-3-3η (CM5); Biacore S200, HBS-TP pH 7.4, 20 °C; steady-state 1:1 fit; mean ± S.E.M.; read-out: SPR KD, 14-3-3η (eta). On the procedure:
as §1
(SPR reads the build-up and loss of mass on a sensor chip optically.)

T3 sequence (P46108 134-191): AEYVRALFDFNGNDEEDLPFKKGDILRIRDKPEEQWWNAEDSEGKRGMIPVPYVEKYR

For the compound `CC[C@H](C)[C@H](NC(=O)[C@H](CCCCN)NC(=O)[C@H](CCCCN)NC(=O)[C@@H]1CCCN1C(=O)[C@H](CC(C)C)NC(=O)[C@@H]1CCCN1C(=O)[C@@H]1CCCN1C(=O)[C@@H]1CCCN1C(=O)[C@H](CC(C)C)NC(=O)[C@@H]1CCCN1C(C)=O)C(=O)N[C@@H](CC(C)C)C(=O)N[C@H](C(=O)N[C@@H](CCCNC(=N)N)C(=O)N[C@H](C(=O)N[C@@H](CCC(N)=O)C(=O)N[C@@H](CO)C(=O)N[C@@H](CC(C)C)C(=O)N1CCC[C@H]1C(=O)N[C@H](C(=O)N[C@@H](CCCNC(=N)N)C(=O)N[C@@H](CCCNC(=N)N)C(N)=O)[C@@H](C)O)[C@@H](C)O)[C@@H](C)O` (single isomer, unassigned) [PEAK3^tandem], the Kd on 14-3-3ε was over 100 µM; on 14-3-3γ [1] (read-out: SPR KD, 14-3-3γ (gamma)) it was over 100 µM; on CrkII^NSH3, 0.7 µM; on 14-3-3η, over 100 µM. The “SPR KD, 14-3-3γ (gamma)” value is “no appreciable binding” on 14-3-3γ [1] and “No binding” at 14-3-3γ [1] (54–74). Also, the entries for the “ITC KD, 14-3-3γ” value at 14-3-3γ [2], at 14-3-3γ [2] (54–74) and on 14-3-3γ [2] (listed as PEAK3 tandem) were “no appreciable binding”, “No binding” and “no binding”, respectively.
